Experiment [1] concerns estrogen receptors. Put plainly: Binding capacity of impurities to estrogen receptors. Further details: species or system human. As to conditions: impurities in Compound 1 from Process A, Route 1 after recrystallization; directly or from the product after ester hydrolysis. Here is the method:
(§1) Estrogen receptor binding assay: A suitable example system is an estrogen receptor-kit manufactured by PanVera for ERIβ, which contains recombinant estrogen receptor β ligand, FLUORMONE™ ES2 (ES2), a fluorescently labeled estrogen ligand, and appropriate buffer. […] When bound to ERβ, ES2 tumbles slowly and has a high fluorescence polarization value.
(§2) The competition assay was conducted according to the manufacturer's protocol (Lit. No. L0712, Rev. 10/03). Assay reagents used were bacculovirus expressed, full length human ERβ […] in 50 mM Bis-Tris Propane (pH=9), 400 mM KCl, 2 mM DTT, 1 mM EDTA, 10% glycerol, ES2 400 nM in methanol and E2 screening buffer consisting of 100 mM potassium phosphate (pH=7.4), 100 μg/mL BGG, 0.02% NaN3. The ES2-ERβ complex was formed with 20 μL 20 nM ERβ (0.020 pmol/μL) and 20 μL 2 nM ES2 (0.002 pmol/μL). Positive control (estrogen) solution was prepared using 20 μL of a 1.0 mM stock solution in DMSO and 80 μL DMSO. In a first dilution, 50 μL of this solution is added to 50 μL of DMSO, which is followed by dilutions in 2-fold increments, to provide for a 14 point dilution curve. In a second dilution, to 4 μL of each DMSO solution from the first dilution is added 400 μL of ES2 screening buffer. […] Fluorescence polarization values are obtained using 485 nm excitation and 530 nm emission interference filters. […]

Experiment [2] concerns the target T1, ERβ (Homo sapiens, UniProt Q92731).
T1 construct: Assay reagents used were bacculovirus expressed, full length human ERβ; purchased PanVera; host or cells: baculovirus expression system
Put plainly: Estrogen receptor binding assay (fluorescence polarization competition), ERβ. How it is done: as §1, §2
(Fluorescence polarisation rises when a labelled molecule tumbles more slowly, as on binding a larger partner.)

For experiment [3], the target named is T2, ERα (Homo sapiens, UniProt P03372).
T2 construct: bacculovirus expressed, full length human 2.8 pmol/μL ERα was used as reagent; purchased PanVera; host or cells: baculovirus expression system
T2 sequence (P03372 whole entry): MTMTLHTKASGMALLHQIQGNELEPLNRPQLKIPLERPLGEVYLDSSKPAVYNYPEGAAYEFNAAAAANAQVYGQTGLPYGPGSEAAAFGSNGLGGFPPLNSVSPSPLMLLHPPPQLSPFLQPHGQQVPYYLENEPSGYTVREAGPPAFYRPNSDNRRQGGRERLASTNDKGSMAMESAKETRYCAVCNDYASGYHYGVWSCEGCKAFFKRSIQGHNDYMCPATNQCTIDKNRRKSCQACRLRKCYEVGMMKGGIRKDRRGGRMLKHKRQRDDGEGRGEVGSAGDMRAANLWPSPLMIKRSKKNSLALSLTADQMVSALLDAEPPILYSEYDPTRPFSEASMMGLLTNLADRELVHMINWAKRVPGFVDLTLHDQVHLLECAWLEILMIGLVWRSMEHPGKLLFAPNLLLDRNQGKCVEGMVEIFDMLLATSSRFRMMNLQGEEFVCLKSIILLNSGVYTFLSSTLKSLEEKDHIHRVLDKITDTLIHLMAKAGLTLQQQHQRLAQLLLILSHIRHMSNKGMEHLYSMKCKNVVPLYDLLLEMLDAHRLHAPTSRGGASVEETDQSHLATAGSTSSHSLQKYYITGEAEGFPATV
Put plainly: Estrogen receptor binding assay (fluorescence polarization competition), ERα.

The nature of experiment [4]: Estrogenic effects seen with Compound 1 prepared by Process A. The conditions noted are these: Compound 1 preparation made by Process A, Route 1 (contains 17α-ethynyl-androst-5-ene-3β,17β-diol impurity).
Experiment [5] has as its system nuclear sex steroid receptors. The experiment is described as follows: Binding activity at nuclear sex steroid receptors. As to conditions: essentially free defined in b31 as Ki>10 μM. The source says:
The term “binding activity” refers to the ability of a specified compound, a preparation comprising Compound 1 or impurity (or impurities) in a preparation of Compound 1 to bind to or associate with a receptor, typically a sex steroid receptor such as an androgen receptor or an estrogen receptor to effect or modulate the receptor's biological activity. Binding is usually measured in assays as the capacity of a compound, usually an impurity in a preparation comprising Compound 1, to displace a physiologically relevant ligand of a receptor (i.e., reference ligand) that is bound to that receptor in a competition assay. The reference ligand is typically a natural ligand of the receptor or an agonist of the receptor that has been labeled with a radioactive or spectroscopic probe whose presence may be queried by scintillation counting or by a spectroscopic method such as fluorescence emission or fluorescence polarization.
The radioactive probe is typically ^3H and/or ^14C, where radioactive atom(s) have replaced one or more of atoms of the ligand at positions where loss of the radiolabel would not occur to an extent under conditions of the assay that would complicate or confound interpretation of the assay results. […]

The mark [6] stands for this setting: Compound 1 essentially free of the 3β,17β-diol impurity, tested to 10 μM.

SMILES strings stand for the structures. Marks after values point to notes of the source that are not given here.

T1 sequence (Q92731 whole entry): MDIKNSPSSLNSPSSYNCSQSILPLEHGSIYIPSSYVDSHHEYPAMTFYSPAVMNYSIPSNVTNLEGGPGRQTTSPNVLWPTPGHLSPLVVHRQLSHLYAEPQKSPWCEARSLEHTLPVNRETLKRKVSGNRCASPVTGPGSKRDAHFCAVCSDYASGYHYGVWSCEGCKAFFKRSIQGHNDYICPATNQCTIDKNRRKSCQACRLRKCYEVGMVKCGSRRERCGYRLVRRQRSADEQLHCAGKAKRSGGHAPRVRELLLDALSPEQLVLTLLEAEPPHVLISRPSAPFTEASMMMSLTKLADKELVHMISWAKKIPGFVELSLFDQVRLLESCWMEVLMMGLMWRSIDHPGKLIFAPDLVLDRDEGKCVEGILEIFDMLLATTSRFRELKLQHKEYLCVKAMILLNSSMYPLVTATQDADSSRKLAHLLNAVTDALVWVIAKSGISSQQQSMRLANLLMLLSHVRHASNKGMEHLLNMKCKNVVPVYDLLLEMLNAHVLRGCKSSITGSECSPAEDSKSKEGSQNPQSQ

For `C#CC1(O)CCC2C3CC=C4CC(OC(C)=O)CCC4(C)C3CCC21C` (stereo not drawn) [17α-ethynyl-3β-acetoxy-androst-5-ene-17β-diol], the “binding capacity to estrogen receptors” value in experiment [1] was 0.05**.

As to `C#CC1(O)CCC2C3CC=C4CC(O)CCC4(C)C3CCC21C` (stereo not drawn) [17α-ethynyl-androst-5-ene-3β,17β-diol], in experiment [1], the “binding capacity to estrogen receptors” value is reported as 0.61**. Also, in experiment [2] (receptor binding studies), the “binding activity at the estrogen receptor ERβ” value is listed as “significant binding activity”. Moreover, in experiment [3] (receptor binding studies), the “binding activity at the estrogen receptor ERα” value is recorded as “significant binding activity”.

Consider `C#C[C@@]1(O)CC[C@H]2[C@@H]3[C@@H](O)C=C4C[C@H](O)CC[C@]4(C)[C@H]3CC[C@@]21C` [Compound 1, 17-Ethynyl-10R,13S-dimethyl 2,3,4,7,8R,9S,10,11,12,13,14S,15,16,17-hexadecahydro-1H-cyclopenta[a]phenanthrene-3R,7R,17S-triol], for which the “activity at the estrogen receptor ERβ” value in experiment [2] (setting [6]) is recorded as “no activity”. The estrogenic effects result in experiment [4] is “estrogenic effects”. In addition, the “binding activity at nuclear sex steroid receptors” value in experiment [5] is on record as “essentially free of binding activity”. Besides, the “activity at the estrogen receptor ERα” value in experiment [3] (setting [6]) is given as “no activity”.

(Values after patent US9802976B2, “Method for preparing substituted 3,7-dihydroxy steroids” (NeurMedix, Inc., priority 2008, dated 2017).)
